Data on 27 compounds can be found in patent US8217029B2, “Oxazolidinone antibiotics” (Actelion Pharmaceuticals Ltd, priority 2007, dated 2012).

Converted amounts (≈) assume the structure as drawn.

The assay relates to S aureus A798. The experiment in a line: Minimal inhibitory concentration (MIC), microdilution method in cation-adjusted Mueller-Hinton Broth following NCCLS guidelines. Conditions: pH of test medium 7.2-7.3. It is filed as cell-based. How it is done:
These assays have been performed following the description given in “Methods for dilution Antimicrobial Susceptibility Tests for Bacteria that Grow Aerobically, 4th ed.; Approved standard: NCCLS Document M7-A4; National Committee for Clinical Laboratory Standards Villanova, Pa., USA, 1997”. Minimal inhibitory concentrations (MICs; mg/l) were determined in cation-adjusted Mueller-Hinton Broth by a microdilution method following NCCLS guidelines (National Committee for Clinical Laboratory Standards. Methods for Dilution Antimicrobial Susceptibility). The pH of the test medium was 7.2-7.3. All Example compounds were tested against several Gram positive and Gram negative bacteria.
In general terms: Dilution methods test growth across graded concentrations, often in twofold steps.
In the case of `COc1ccc2ncc(F)c(N3CCN(C[C@@H]4CN(c5ccc6c(c5)NC(=O)CS6)C(=O)O4)CC3)c2n1` [Example 98, 6-{(R)-5-[4-(3-Fluoro-6-methoxy-[1,5]naphthyridin-4-yl)-piperazin-1-ylmethyl]-2-oxo-oxazolidin-3-yl}-4H-benzo[1,4]thiazin-3-one], the MIC (usually the lowest concentration that inhibits growth of the organism) was no more than 0.031 µg/mL.
Regarding `COc1ccc2nccc(N3CC(NC(=O)[C@@H]4CN(c5ccc6c(c5)OCCO6)C(=O)O4)C3)c2n1` [Example 116, (S)-3-(2,3-Dihydro-benzo[1,4]dioxin-6-yl)-2-oxo-oxazolidine-5-carboxylic acid[1-(6-methoxy-[1,5]naphthyridin-4-yl)-azetidin-3-yl]-amide], the “MIC S aureus A798” value is given as “<=0.031 mg/l”.
`COc1ccc2nccc(N3CC(N(C)C[C@@H]4CN(c5ccc6c(c5)OCO6)C(=O)O4)C3)c2n1` [Example 145, (R)-3-Benzo[1,3]dioxol-5-yl-5-({[1-(6-methoxy-[1,5]naphthyridin-4-yl)-azetidin-3-yl]-methyl-amino}-methyl)-oxazolidin-2-one] came in with an MIC of 0.125 µg/mL (≈ 0.27 µM).
Same read-out and setting: the figure for `COc1ccc2nccc(N3CCN(C[C@H]4CN(c5cccc(F)c5)C(=O)O4)CC3)c2n1` [Example 40, (S)-3-(3-Fluoro-phenyl)-5-[4-(6-methoxy-[1,5]naphthyridin-4-yl)-piperazin-1-ylmethyl]-oxazolidin-2-one] is 0.125 µg/mL (≈ 0.286 µM).
Compound `N#Cc1ccc2nccc(N3CC(NC[C@@H]4CN(c5ccc6c(c5)NC(=O)CS6)C(=O)O4)C3)c2c1` [Example 161, 4-(3-{[(R)-2-oxo-3-(3-oxo-3,4-dihydro-2H-benzo[1,4]thiazin-6-yl)-oxazolidin-5-ylmethyl]amino}-azetidin-1-yl)-quinoline-6-carbonitrile] yielded an MIC of no more than 0.031 µg/mL.
On the same count and under the same terms, in the case of `COc1ccc2nccc(N3CCN(C[C@@H]4CN(c5ccc(Br)c(F)c5)C(=O)O4)CC3)c2n1` [Example 13, (R)-3-(4-Bromo-3-fluoro-phenyl)-5-[4-(6-methoxy-[1,5]naphthyridin-4-yl)-piperazin-1-ylmethyl]-oxazolidin-2-one] it was no more than 0.031 µg/mL; in that of `COc1ccc2nccc(N3CC(N(C)C[C@@H]4CN(c5ccccc5)C(=O)O4)C3)c2n1` [Example 133, (R)-5-({[1-(6-Methoxy-[1,5]naphthyridin-4-yl)-azetidin-3-yl]-methyl-amino}-methyl)-3-phenyl-oxazolidin-2-one], 2 µg/mL (≈ 4.77 µM).
`COc1ccc2ncc(F)c(N3CCCN(C[C@@H]4CN(c5ccc6c(c5)NC(=O)CS6)C(=O)O4)CC3)c2n1` [Example 104, 6-{(R)-5-[4-(3-Fluoro-6-methoxy-[1,5]naphthyridin-4-yl)-[1,4]diazepan-1-ylmethyl]-2-oxo-oxazolidin-3-yl}-4H-benzo[1,4]thiazin-3-one] yielded an MIC of no more than 0.031 µg/mL.
`COc1ccc2ncc(F)c(N3CC[C@H](NC[C@H]4CN(c5ccc6c(c5)NC(=O)CS6)C(=O)O4)C3)c2n1` [Example 164, 6-((S)-5-{[(S)-1-(3-Fluoro-6-methoxy-[1,5]naphthyridin-4-yl)-pyrrolidin-3-ylamino]methyl}-2-oxo-oxazolidin-3-yl)-4H-benzo[1,4]thiazin-3-one] showed a minimum inhibitory concentration (MIC) of no more than 0.031 µg/mL.
Still for that read-out and setting: the figure for `COc1ccc2nccc(N3CCC(O)(CC4CN(c5ccc6c(c5)OCCO6)C(=O)O4)CC3)c2n1` (racemic) [Example 5, (RS)-3-(2,3-Dihydro-benzo[1,4]dioxin-6-yl)-5-[4-hydroxy-1-(6-methoxy-[1,5]naphthyridin-4-yl)-piperidin-4-ylmethyl]-oxazolidin-2-one] is no more than 0.031 µg/mL.
On the same count and under the same terms, the figure for `COc1ccc2nccc(N3CCN(CC4CN(c5cc6c(nn5)OCCO6)C(=O)O4)CC3)c2n1` (racemic) [Example 110, (RS)-3-(6,7-Dihydro-[1,4]dioxino[2,3-c]pyridazin-3-yl)-5-[4-(6-methoxy-[1,5]naphthyridin-4-yl)-piperazin-1-ylmethyl]-oxazolidin-2-one] is 8 µg/mL (≈ 16.7 µM).
Turning to `COc1ccc2nccc(N3CCN(C[C@@H]4CN(c5ccc6c(c5)OCO6)C(=O)O4)CC3)c2n1` [Example 35, (R)-3-Benzo[1,3]dioxol-5-yl-5-[4-(6-methoxy-[1,5]naphthyridin-4-yl)-piperazin-1-ylmethyl]-oxazolidin-2-one], the minimal inhibitory concentration (MIC) was no more than 0.031 µg/mL.
Same read-out and setting: in the case of `COc1ccc2nccc(N3CCCN(C[C@@H]4CN(c5ccc6c(c5)NC(=O)CS6)C(=O)O4)CC3)c2n1` [Example 106, 6-{(R)-5-[4-(6-Methoxy-[1,5]naphthyridin-4-yl)-[1,4]diazepan-1-ylmethyl]-2-oxo-oxazolidin-3-yl}-4H-benzo[1,4]thiazin-3-one] it was no more than 0.031 µg/mL; in that of `COc1ccc2nc(C)cc(N3CC(NC[C@@H]4CN(c5ccc6c(c5)NC(=O)CS6)C(=O)O4)C3)c2c1` [Example 131, 6-((R)-5-{[1-(6-Methoxy-2-methyl-quinolin-4-yl)-azetidin-3-ylamino]-methyl}-2-oxo-oxazolidin-3-yl)-4H-benzo[1,4]thiazin-3-one], no more than 0.031 µg/mL.
Same read-out and setting: in the case of `COc1ccc2nccc(N3C[C@@H]4C[C@H]3CN4C[C@@H]3CN(c4ccc5c(c4)NC(=O)CO5)C(=O)O3)c2n1` [Example 151, 6-{(R)-5-[(1S,4S)-5-(6-Methoxy-[1,5]naphthyridin-4-yl)-2,5-diaza-bicyclo[2.2.1]hept-2-ylmethyl]-2-oxo-oxazolidin-3-yl}-4H-benzo[1,4]oxazin-3-one] it was 0.063 µg/mL (≈ 0.125 µM).
On the same count and under the same terms, the figure for `COc1ccc2nccc(N3CCN(C[C@@H]4CN(c5ccccc5)C(=O)O4)CC3)c2n1` [Example 12, (R)-5-[4-(6-Methoxy-[1,5]naphthyridin-4-yl)-piperazin-1-ylmethyl]-3-phenyl-oxazolidin-2-one] is no more than 0.031 µg/mL; for `COc1ccc2nccc(N3CC(N(C)C[C@@H]4CN(c5cccc(F)c5)C(=O)O4)C3)c2n1` [Example 147, (R)-3-(3-Fluoro-phenyl)-5-({[1-(6-methoxy-[1,5]naphthyridin-4-yl)-azetidin-3-yl]-methyl-amino}-methyl)-oxazolidin-2-one] it is 0.25 µg/mL (≈ 0.571 µM).
For the compound `COc1ccc2nccc(N3CC[C@@H]4CN(C[C@@H]5CN(c6ccc7c(c6)OCCO7)C(=O)O5)C[C@@H]43)c2n1` (mixture of isomers) [Example 90, (R)-3-(2,3-Dihydro-benzo[1,4]dioxin-6-yl)-5-{[(3aR*,6aR*)-1-(6-methoxy-[1,5]naphthyridin-4-yl)-hexahydro-pyrrolo[3,4-b]pyrrol-5-yl]-methyl}-oxazolidin-2-one], 4 µg/mL was the least that counted as inhibitory (MIC).
The same measure, in the same setting: in the case of `COc1ccc2ncc(F)c(N3CCC(NC[C@@H]4CN(c5ccc6c(c5)NC(=O)CO6)C(=O)O4)CC3)c2n1` [Example 123, 6-((R)-5-{[1-(3-Fluoro-6-methoxy-[1,5]naphthyridin-4-yl)-piperidin-4-ylamino]-methyl}-2-oxo-oxazolidin-3-yl)-4H-benzo[1,4]oxazin-3-one] it was no more than 0.031 µg/mL; in that of `COc1ccc2ccc(F)c(N3CC(NC[C@@H]4CN(c5ccc6c(c5)NC(=O)CS6)C(=O)O4)C3)c2n1` [Example 159, 6-((R)-5-{[1-(7-Fluoro-2-methoxy-quinolin-8-yl)-azetidin-3-ylamino]-methyl}-2-oxo-oxazolidin-3-yl)-4H-benzo[1,4]thiazin-3-one], no more than 0.031 µg/mL; in that of `COc1ccc2nccc(N3CCC(C(=O)NC[C@@H]4CN(c5ccc(C)c(F)c5)C(=O)O4)C3)c2n1` (mixture of isomers) [Example 84, (RS)-1-(6-Methoxy-[1,5]naphthyridin-4-yl)-pyrrolidine-3-carboxylic acid [(R)-3-(3-fluoro-4-methyl-phenyl)-2-oxo-oxazolidin-5-ylmethyl]-amide], no more than 0.031 µg/mL.
Same read-out and setting: in the case of `COc1ccc2ncnc(N3CC(NC[C@@H]4CN(c5ccc6c(c5)NC(=O)CS6)C(=O)O4)C3)c2c1` [Example 55, 6-((R)-5-{[1-(6-Methoxy-quinazolin-4-yl)-azetidin-3-ylamino]-methyl}-2-oxo-oxazolidin-3-yl)-4H-benzo[1,4]thiazin-3-one] it was no more than 0.031 µg/mL; in that of `COc1ccc2nccc(N3CC(N(C)C[C@@H]4CN(c5ccc(C)c(C(F)(F)F)c5)C(=O)O4)C3)c2n1` [Example 135, (R)-5-({[1-(6-Methoxy-[1,5]naphthyridin-4-yl)-azetidin-3-yl]-methyl-amino}-methyl)-3-(4-methyl-3-trifluoromethyl-phenyl)-oxazolidin-2-one], no more than 0.031 µg/mL; in that of `COc1ccc2nccc(N3CCN(C[C@@H]4CN(c5ccc6c(c5)OCCO6)C(=O)O4)CC3)c2n1` [Example 9, (R)-3-(2,3-Dihydro-benzo[1,4]dioxin-6-yl)-5-[4-(6-methoxy-[1,5]naphthyridin-4-yl)-piperazin-1-ylmethyl]-oxazolidin-2-one], no more than 0.031 µg/mL.
Same read-out and setting: in the case of `COc1ccc2nccc(N3CC(N(C)C[C@@H]4CN(c5ccc(C)c(Br)c5)C(=O)O4)C3)c2n1` [Example 142, (R)-3-(3-Bromo-4-methyl-phenyl)-5-({[1-(6-methoxy-[1,5]naphthyridin-4-yl)-azetidin-3-yl]-methyl-amino}-methyl)-oxazolidin-2-one] it was no more than 0.031 µg/mL.
`COc1ccc2ncc(F)c(N3CCC(N(C)C[C@@H]4CN(c5ccc6c(c5)NC(=O)CS6)C(=O)O4)CC3)c2n1` [Example 124, 6-[(R)-5-({[1-(3-Fluoro-6-methoxy-[1,5]naphthyridin-4-yl)-piperidin-4-yl]-methyl-amino}-methyl)-2-oxo-oxazolidin-3-yl]-4H-benzo[1,4]thiazin-3-one]: the MIC was no more than 0.031 µg/mL.
Still for that read-out and setting: in the case of `CCOC(=O)[C@@H]1CN(c2ccnc3ccc(OC)nc23)C[C@H]1NC[C@H]1CN(c2ccc3c(c2)NC(=O)CS3)C(=O)O1` (relative stereo) [Example 73, (3R*,4S*)-1-(6-Methoxy-[1,5]naphthyridin-4-yl)-4-{[(S)-2-oxo-3-(3-oxo-3,4-dihydro-2H-benzo[1,4]thiazin-6-yl)-oxazolidin-5-ylmethyl]amino}-pyrrolidine-3-carboxylic acid ethyl ester] it was no more than 0.031 µg/mL.
